Measurements: patent US11666580B2, “Mechanism of resistance to bet bromodomain inhibitors” (Dana-Farber Cancer Institute, Inc., priority 2015, dated 2023)

Tests used:
[1] = system: TNBC cells (SUM159 and MDA-MB-231); experiment: Senescence β-galactosidase staining; assay type: cell-based, human; details: JQ1 500 nM, 72 h
Experimental: (§1) Cell viability and growth assays (FIGS. 1A-1B, FIGS. 3A-3E, 3G, FIGS. 5D-5F, FIGS. 6C, 6E, 6I, FIG. 7A, FIG. 10D, FIGS. 14A-14C), cycle, apoptosis, and MDR assays were performed in triplicates and repeated 2-3 times. For cell proliferation assays, cells were plated at 500 cells per well in 96-well plates and treated the next day with inhibitors, DMSO or doxycycline (500 ng). Cells were cultured at 37° C. with 5% CO2 in the media described-above, and cell viability was measured using CellTiter-Glo three days after treatments. For cell growth assays, cells were plated at 5000 (SUM159) or 20000 (SUM149) cells per well in 6-well plates and treated the next day with inhibitors. Cells were counted every three days by cell counter. Cellular apoptosis was analyzed with an APC AnnexinV/7ADD Apoptosis Detection kit (BD Pharmingen). AnnexinV/7AAD assessments and cell cycle graphics were generated using FlowJo software V7.6.1 for Windows (Tree Star). Senescence Beta-gal staining was performed using Senescence β-Galactosidase staining kit from Cell signaling. Briefly, after JQ1 treatment (500 nM) for 72 h, SUM159 and MDA-MB-231 cells were fixed by Fixative Solution for 15 min, followed by β-Galactosidase solution incubation overnight at 37° C. The staining was checked under microscope for the development of blue color. […] The cells were analyzed by fluorescent microscope and FACS.

[2] = system: pSTAT3, pJAK2 and MYC in SUM159 cells; experiment: Immunoblot kinetic study of signaling factors after JQ1; assay type: cell-based, human
Source text: Immunoblotting and immunoprecipitation experiments were repeated 2-3 times.

[3] = system: patient-derived primary human TNBC xenografts; experiment: Xenograft assay, patient-derived TNBC; assay type: in vivo, mice; details: two weeks of JQ1, 50 mg/kg daily
Experimental: (§2) For xenograft assays 5-6-weeks old female CrTac:NCr-Foxn1^nu and NOD.Cg-Prkdc^scid Il2rg^tm1Sug/JicTac mice were purchased from Taconic. Tumors were induced by bilateral orthotopic mammary fat pad injection of 1×10^6 cells in 50% Matrigel (BD Biosciences) in DMEM/F12 or Medium 171 (except for IDC50-X cells, which were injected with 3% FBS and 4 mg/ml collagen gel in Medium 171). Animal experiments were conducted following protocol 11-023 approved by the Dana-Farber Cancer Institute Animal Care and Use Committee.

TNBC cells = experiment: Immunofluorescence microscopy for basal and luminal markers; assay type: cell-based, human; details: 3 days after JQ1 (500 nM)
Experimental: Antibodies used for immunofluorescence were CK18 (Dako, M7010), CK17 (Dako, M7046), HMW (Dako, M0630), LMW (Dako, M0631), CD44 (NeoMarkers, MS-668-P1), CD24 (NeoMarkers, MS-1279-P1), p-STAT3 (Cell Signaling, 9145S), VIM (Dako, M073501), CDH1 (BD Biosciences, 610181), FLAG (Sigma, F1804), BrdU (Roche, 11170376001). Immunofluorescence experiments were performed in cultured cells or in whole sections of formalin-fixed paraffin embedded (FFPE) xenograft tumors. The staining was performed as described^50. Antibody dilutions were as follows: pSTAT3 (1:25), CD44 (1:100), CD24 (1:100), CK18 (1:200), CK17 (1:200), HMK (1:200), LMK (1:200), VIM (1:100), CDH1 (1:100), FLAG (1:50), and BrdU (1:200).

[4] = target: BRD4-MED1 association in SUM159 cells (Homo sapiens, UniProt O60885); details: sensitive cells
Experimental: Cells were lysed five days after transfection with siRNAs in RIPA buffer. Proteins were resolved in SDS-polyacrylamide gels (4%-12%) and transferred to PVDF membranes by using a Tris-glycine buffer system. Membranes were blocked with 5% milk powder in 0.1% Tween20 in PBS (PBS-T) for 1 hr at room temperature followed by incubation with primary antibodies at 1:1000 dilution in 2.5% milk PBS-T. For immunoprecipitation, nuclear extracts were prepared as follow: 10×10^6 cells were resuspended in 5 ml Buffer A: 10 mM Tris pH 7.9, 1.5 mM MgCl2, 10 mM KCl, 0.05% NP-40, 1 mM DTT, and protease and phosphatase inhibitors. Cells were incubated on ice for 15 min and gently vortexed every 5 min. After centrifugation at 2,000 g for 5 min, pellets were suspended in 0.3 ml buffer B (20 mM Tris pH 7.9, 25% glycerol, 0.42 M NaCl, 1.5 mM MgCl2, 1 mM KCl, 0.5% NP40, 0.2 mM EDTA, 1 mM DTT, and protease and phosphatase inhibitors) and incubated for 5 min on ice. After centrifugation of the lysates at 14 g for 10 min at 4° C., supernatant was diluted with 0.6 ml buffer A, and added NP-40 to final 0.5% and treated with DNase I. The samples were then incubated at 4° C. overnight with BRD4 or Flag antibodies at 1:100 dilution and immunoprecipitates were collected on Dynabeads Protein G for 2 hr. […]

SUM159 cells [5] = experiment: Apoptosis (sub-G1 fraction and Annexin-V staining); assay type: cell-based, human; details: prolonged exposure 48-72 hours, JQ1 500 nM
Experimental: as §1, with “FACS. […]” for “FACS.”

[6] = system: xenografts derived from SUM159R cells; experiment: Xenograft assay, SUM159R (BBI-resistant SUM159); assay type: in vivo, mice; details: JQ1 for 30 days
Experimental: as §2

[7] = system: tumors derived from MDA-MB-231; experiment: Xenograft assay, MDA-MB-231; assay type: in vivo, mice; details: two weeks of JQ1, 50 mg/kg daily
Experimental: as §2

[8] = system: tumors derived from SUM159; experiment: Xenograft assay, SUM159; assay type: in vivo, mice; details: two weeks of JQ1, 50 mg/kg daily
Experimental: as §2

[9] = target: chromatin-bound BRD4 in SUM159 cells (Homo sapiens, UniProt O60885); details: SUM159, JQ1 exposure
Experimental: Chem-seq was performed essentially as described^27. ChIP-seq: SUM159 and SUM159R cells (4×10^7) were grown in SUM Medium. The media were then removed and replaced with media containing 1% formaldehyde (EM grade; tebu-bio) and crosslinked for 8 min. Crosslinking was quenched by adding glycine to a final concentration of 0.2 M. The cells were washed with ice-cold PBS, harvested in PBS, and the cell pellet was washed with PBS. The nuclear fraction was extracted by first resuspending the pellet in 10 ml of LB1 buffer (50 mM HEPES-KOH [pH 7.5], 140 mM NaCl, 1mMEDTA, 10% glycerol, 0.5% NP-40 or Igepal CA-630, and 0.25% Triton X-100) for 10 min at 4° C. Cells were pelleted, resuspended in 10 ml of LB2 buffer (10 mM Tris-HCL [pH 8.0], 200 mM NaCl, 1 mM EDTA, and 0.5 mM EGTA), and mixed for 5 min. Cells were pelleted and resuspended in 300 μl of LB3 buffer (10 mM Tris-HCl [pH 8], 100 mM NaCl, 1 mM EDTA, 0.5 mM EGTA, 0.1% Na-deoxycholate, and 0.5% N-lauroylsarcosine) and sonicated in a covaris sonicator for 10 min. A total of 30 μl of 10% Triton X-100 was added, and lysate was centrifuged for 10 min at 20,000 rcf to purify the debris. The supernatant was then incubated with 100 μl of magnetic beads (Life Technologies) prebound with 20 μg BRD4 antibody (Bethyl, A301-985A), and immunoprecipitation (IP) was conducted overnight in the cold room. […]

SUM159 and SUM149 cells = experiment: RNA-seq following JQ1 treatment; assay type: cell-based, human; details: different time points following JQ1 500 nM
Experimental: Quantifying changes in gene expression of SE proximal genes. Genes within 50 kb of SE in SUM159 or SUM149 were identified and filtered for expression status (>1 FPKM expression in any sample), and filtered to remove non poly-adenylated transcripts (e.g. microRNAs). For SUM159, log2 fold changes in gene expression at SE associated genes or all expressed genes was compared at 3, 12, and 24 hours post JQ1 treatment (FIG. 2F). For SUM149, comparisons were made at 12 hours post JQ1 treatment (Extended Data FIG. 3B). The statistical significance of differences between distributions of changes was also assessed using a Welch's two-tailed t test.

SUM159 cells [10] = experiment: Cell cycle analysis of SUM159 cells synchronized with nocodazole in G2/M; assay type: cell-based, human
Experimental: Cell cycle analysis was performed 72 hr after JQ1 treatment or BRD4 downregulation with doxycycline using propidium iodide (PI) staining. Cells were resuspended in 1 ml of growth medium supplemented with 2 μg/ml PI (Life Technologies) as final concentration. After 60 min at 37° C. in the dark, analysis was performed on a FACS AriaII cytometer (BD Biosciences). The cell cycle was plotted as histogram after excluding doublets. Cell synchronization Procedure. SUM159 cells were treated with nocodazole (200 ng/ml) for 12 h and then cells were tapped to detach from the plates. After washing twice with PBS, cells were replated with or without JQ1 in collagen coated plates. Cells were collected at 0, 3, 6, 12 h time point for FACS and immunoblot analysis.

## Cc1sc2c(c1C)C(c1ccc(Cl)cc1)=N[C@@H](CC(=O)OC(C)(C)C)c1nnc(C)n1-2 [JQ1]
[1]
  Acidic β-galactosidase activity (senescence): markedly increased acidic β-galactosidase activity
[2]; SUM159, after 12 hours
  pSTAT3 and pJAK2 levels: decrease in pSTAT3 and pJAK2
[2]; SUM159, at 24 hours
  MYC level: dose-responsive decrease in MYC
[3]
  Tumor growth: efficiently inhibited the growth of established tumors
TNBC cells
  Basal markers (HMW cytokeratins): decrease of high molecular-weight (HMW) cytokeratins
  Luminal markers (LMW cytokeratins, CK18): elevation of low molecular-weight (LMW) cytokeratins and cytokeratin 18 (CK18)
[4]
  Association of BRD4 with MED1: efficiently displaced BRD4 from MED1
SUM159 cells [5]
  Apoptotic response (sub-G1 fraction, Annexin-V staining): elicited an apoptotic response
[6]
  Tumor response to JQ1 treatment: not responsive
[7]
  Tumor growth: efficiently inhibited the growth of established tumors
[8]
  Tumor growth: efficiently inhibited the growth of established tumors
[9]
  BRD4 occupancy at Chem-seq-defined SE regions: depleted of BRD4
SUM159 and SUM149 cells
  Expression of super-enhancer associated genes versus all active genes: significantly more likely to be down-regulated
SUM159 cells [10]; JQ1 (500 nM) added 3 hours after release
  Cell cycle after release from G2/M: less pronounced effects
SUM159 cells [10]; JQ1 (500 nM) administered 1 hour before release
  Cell cycle after release from G2/M: arrested in early G1 with high cyclin D1 levels
